Values of other authors in patent US20090247493A1, “Regimens for Treatment of Conditions Related to Estrogen Deficiency” (Duramed Pharmaceuticals, Inc., priority 2006, published 2009).

Conditions: in a contraceptive regimen

SMILES: C[C@]12CC[C@@H]3c4ccc(O)cc4CC[C@H]3[C@@H]1CC[C@@H]2O [17β-estradiol]
- dose roughly equivalent to 30 μg of ethinyl estradiol: about 2,000 μg

SMILES: C#C[C@]1(O)CC[C@H]2[C@@H]3CCc4cc(OC)ccc4[C@H]3CC[C@@]21C [mestranol]
- dose roughly equivalent to 30 μg of ethinyl estradiol: about 60 μg
